Like-named read-outs stand apart in the source and are kept apart here. Bridge positions count the residues as written; N and C are the ends. Square brackets hold non-standard residues; d marks the D form. Peptide text beside a SMILES is read from it. S5 = C=CCCC[C@](C)(N)C(=O)O
Columns and labels:
Jurkat cells = assay: Cytotoxicity, LDH leakage, Jurkat cells; assay type: cell-based; conditions: 30 min, 2 hr and 4 hr of exposure
Procedure: Cytotoxicity was also evaluated in Jurkat cells using a Promega LDH leakage detection kit. Jurkat cells were plated at 10^4 cells/well in a volume of 200 μl. The test was performed after 30 min, 2 hr and 4 hr of exposure to the NYAD-201, NYAD-202 and NYAD-203 compounds.

HIV-1 IIIB [1] = assay: Release and infectivity of HIV-1 virus released from infected MT-2 cells after treatment; assay type: cell-based; conditions: lower dose 6.25 μg/ml, normalized for p24, TCID50
Procedure: On the fourth day post-infection, the supernatants were collected and filtered with a 0.45 μm PVDF membrane. One aliquot of the supernatants from each sample was mixed 1:1 with a solution of 5% Triton X-100 for p24 quantification, and stored at 4° C., another aliquot was immediately frozen at −80° C. and used to compare the infectivity of the viral particles released by NYAD-201 and NYAD-202 treated cells to the viral particles released by untreated cells. The protein p24 was first quantified by sandwich-ELISA, then the viral samples were normalized for the p24 content and titered to calculate the TCID50. MT-2 cells were infected with a two fold dilutions of virus from NYAD-201 and NYAD-202 treated and untreated cells. […] On the fourth day post infection supernatants were collected for p24 quantification by sandwich-ELISA and the TCID50 was calculated by the Spearman-Karber statistical method. […]
For these reasons, not only the quantity but also the quality of the viral particles released in the supernatant was evaluated. First, the p24/viral particles released in the supernatant following NYAD-201 and NYAD-202 treatment were quantified, then starting with the same amount of p24 per sample, the viruses released in the supernatant were titered. The TCID50 was calculated and expressed as percentage infectivity with respect to the untreated positive control. […]

[2] = Cytotoxicity, XTT method, MT-2 cells; assay type: cell-based, human; conditions: human, read-out: CC50 (μM) ± SD, cytotoxicity in MT-2 cells
Procedure: (§1) Cytotoxicity of peptides in MT-2 cells and PBMC was measured by the XTT [(sodium 3′-(1-(phenylamino)-carbonyl)-3,4-tetrazolium-bis(4-methoxy-6-nitro) bezenesulfonic acid hydrate)] method as previously described (Jiang et al., 2004). Briefly, for MT-2 cells, 100 μl of a peptide at graded concentrations was added to an equal volume of cells (1×10^5 cells/ml) in 96-well plates followed by incubation at 37° C. for 4 days, which ran parallel to the neutralization assay in MT-2 (except medium was added instead of virus). In the case of PBMC, 5×10^5 cells/ml were used and the cytotoxicity was measured after 7 days. After addition of XTT (PolySciences, Inc.), the soluble intracellular formazan was quantitated colorimetrically at 450 nm 4 hr later with a reference at 620 nm. The percent of cytotoxicity and the CC50 values were calculated as above (Table 2 and Table 3).

MT-2 cells = assay: Cytotoxicity, XTT method, MT-2 cells; assay type: cell-based, human; conditions: 4 days
Procedure: as §1

HIV-1 IIIB [3] = test system: HIV-1 IIIB
Procedure: (§2) The inhibitory activity of NYAD-201, and related stapled peptides on infection by laboratory-adapted HIV-1 strains was determined as previously described (Jiang et al. J Exp. Med 174:1557-1563, 1991) with minor modifications. Azidothymidine (AZT) was used as a positive control in the infectivity assays. In brief, 1×10^4 MT-2 cells were infected with HIV-1 at 100 TCID50 (50% tissue culture infective dose) (0.01 MOI [multiplicity of infection]) in 200 μl RPMI 1640 medium containing 10% FBS in the presence or absence of peptides at graded concentrations overnight. The culture supernatants were then removed and fresh media containing freshly prepared test peptide were added. On the fourth day post-infection, 100 μl of culture supernatants were collected from each well, mixed with equal volume of 5% Triton X-100 and tested for p24 antigen by ELISA.
(§3) In addition, NYAD-201, NYAD-202 and NYAD-203 were also tested using several laboratory-adapted and primary isolates in MT-2 cells and PBMC (peripheral blood mononuclear cells), respectively.

HIV-1RF/L-323-12-3 = conditions: read-out: IC50 (μM ± SD), HIV-1RF/L-323-12-3; PR-resistant isolate, subtype B, MT-2, coreceptor X4
Procedure: as §2, §3

HIV-1 MN = conditions: read-out: IC50 (μM ± SD), HIV-1 MN; laboratory strain, subtype B, MT-2, coreceptor X4
Procedure: as §2, §3

HIV-1 AZT-R = conditions: read-out: IC50 (μM ± SD), HIV-1 AZT-R; RT-resistant isolate, subtype B, MT-2, coreceptor X4
Procedure: as §2, §3

HIV-1 SF2 = conditions: read-out: IC50 (μM ± SD), HIV-1 SF2; laboratory strain, subtype B, MT-2, coreceptor R5X4
Procedure: as §2, §3

HIV-1 RF = conditions: read-out: IC50 (μM ± SD), HIV-1 RF; laboratory strain, subtype B, MT-2, coreceptor X4
Procedure: as §2, §3

For CSCC[C@@H]1NC(=O)[C@H](Cc2c[nH]c3ccccc23)NC(=O)[C@@](C)(NC(=O)[C@H](CCCCN)NC(=O)[C@@H](NC(=O)[C@H](CCC(=O)O)NC(=O)[C@H](CCC(N)=O)NC(=O)[C@H](C)N)C(C)C)CCCC=CCCC[C@@](C)(C(=O)N[C@H](C(=O)N[C@@H](CC(C)C)C(=O)N[C@@H](CC(C)C)C(=O)N[C@H](C(=O)N[C@@H](C)C(N)=O)C(C)C)[C@@H](C)O)NC(=O)[C@H]([C@@H](C)O)NC1=O [NYAD-201, AQEVKXWMTXTLLVA] (H-AQEVK[S5]WMT[S5]TLLVA-NH2; staple 6-10), the “Cytotoxicity in Jurkat cells (LDH leakage)” value (Jurkat cells) was “did not demonstrate toxicity”, the “Percentage infectivity of virus produced by treated cells with respect to untreated control” value (HIV-1 IIIB [1]) was 50% and the CC50 at 4 days [2] was over 115 µM. The CC50 (MT-2 cells) was over 115 µM, the IC50 (HIV-1 IIIB [3]; read-out: IC50 (μM ± SD), HIV-1 IIIB, laboratory strain, subtype B, MT-2, coreceptor X4) was 4.29 ± 0.62 µM and the IC50 (HIV-1 IIIB [3]; read-out: IC50 (μM) ± SD, antiviral activity against HIV-1 IIIB, MT-2 cells, p24 production, fourth day post-infection) was 4.29 ± 0.62 µM. The IC50 (HIV-1RF/L-323-12-3) was 5.6 ± 0.5 µM, the IC50 (HIV-1 MN) was 3.03 ± 0.61 µM and the IC50 (HIV-1 AZT-R) was 8 ± 1.27 µM. The IC50 (HIV-1 SF2) was 5.06 ± 1.37 µM and the IC50 (HIV-1 RF) was 2.84 ± 0.63 µM.
